Assay results taken from patent publication US11648254B2 (Kumquat Biosciences Inc., priority 2021, dated 2023).
pIC50: −log10 of the molar value. Where two headings read alike, the source gives them in different places.

How the values were obtained:
[1] = tested on: MIA PaCa-2 cells (K-Ras G12C); assay: Ras-SOS cellular growth inhibition assay (CellTiter-Glo, 3D); type: cell-based
Protocol: MIA PaCa-2 (ATCC CRL-1420) and NCI-H1792 (ATCC CRL-5895) cell lines comprise a G12C mutation can be used to assess Ras cellular signaling in vitro, e.g., in response to a subject compound of the present disclosure. […] Cell culture medium (comprising, for example, MIA PaCa-2 cells) is prepared with DMEM/Ham's F12 (e.g., with stable Glutamine, 10% FCS, and 2.5% Horse Serum. NCI-H1792 culture medium is prepared with RPMI 1640 (e.g., with stable Glutamine) and 10% FCS. A CellTiter-Glo (CTG) luminescent based assay (Promega) is used to assess growth of the cells, as a measurement of the ability of the compounds herein to inhibit Ras signaling in the cells. The cells (e.g., 800-1200 per well) are seeded in their respective culture medium in standard tissue culture-treated ultra-low attachment surface 96-well format plates (Corning Costar #3474). The day after plating, cells are treated with a dilution series (e.g., a 9 point 3-fold dilution series) of the compounds herein (e.g., approximately 125 μl final volume per well). Cell viability can be monitored (e.g., approximately 5 days later) according to the manufacturer's recommended instructions, where the CellTiter-Glo reagent is added (e.g., approximately 65 μl), vigorously mixed, covered, and placed on a plate shaker (e.g., approximately for 20 min) to ensure sufficient cell lysis prior to assessment of luminescent signal. The IC50 values are determined using the four-parameter fit. The resulting IC50 value is a measurement of the ability of the compounds herein to reduce cell growth of Ras-driven cells as representative tumor cells.

SOS1 = SOS1 (Homo sapiens (Human), UniProt Q07889); assay: Ras-SOS interaction assay (HTRF); type: biochemical
[2] = tested on: NCI-H1975 cells (EGFR T790M L858R); assay: EGFR-SOS cellular inhibition assay (CellTiter-Glo, 3D); type: cell-based
[3] = Homo sapiens, MIA PaCa-2, 120 h, MIA PaCa-2, 3D proliferation, about 5 days, read-out: Bio-Cell-Prolif-3D (MiaPaca2 IC50)
[4] = Homo sapiens, MIA PaCa-2, MIA PaCa-2, read-out: IC50 in inhibiting MIA PaCa-2 cell growth
[5] = K-RasG13D utilized, read-out: IC50 inhibition of SOS
[6] = K-RasG13D, read-out: IC50 value against SOS1
[7] = Homo sapiens, 120 h, NCI-H1975, 3D proliferation, about 5 days, read-out: Bio-Cell-Prolif-3D (H1975 IC50)
[8] = Homo sapiens, NCI-H1975, EGFR T790M L858R, read-out: IC50 in inhibiting growth of NCI-H1975 cell line

| Molecule | pIC50 [1, 3] | pIC50 [1, 4] | pIC50 (SOS1; [5]) | pIC50 (SOS1; [6]) | pIC50 [2, 7] | pIC50 [2, 8] | pIC50 ([1]; MIA PaCa-2, 3D proliferation, about 5 days, read-out: Bio-Cell-Prolif-3D (MiaPaca2 IC50)) | pIC50 ([1]; MIA PaCa-2, read-out: IC50 in inhibiting MIA PaCa-2 cell growth) | pIC50 ([2]; NCI-H1975, 3D proliferation, about 5 days, read-out: Bio-Cell-Prolif-3D (H1975 IC50)) | pIC50 ([2]; NCI-H1975, EGFR T790M L858R, read-out: IC50 in inhibiting growth of NCI-H1975 cell line) |
| --- | --- | --- | --- | --- | --- | --- | --- | --- | --- | --- |
| COc1nc2nc(C)nc(N[C@H](C)c3cccc(C(F)F)c3F)c2cc1[C@H]1C[C@@H](NC(=O)C2COC2)C1 [Compound 125, N-((1S,3s)-3-(4-(((R)-1-(3-(difluoromethyl)-2-fluorophenyl)ethyl)amino)-7-methoxy-2-methylpyrido[2,3-d]pyrimidin-6-yl)cyclobutyl)oxetane-3-carboxamide] | ≥ 6.00 | > 6.30 |  | > 7.30 | ≥ 6.00 | > 6.30 |  |  |  |  |
| 4-(4-((1-(3-(difluoro(tetrahydrofuran-3-yl)methyl)-2-fluorophenyl)ethyl)amino)-7-methoxy-2-methylpyrido[2,3-d]pyrimidin-6-yl)tetrahydro-2H-thiopyran 1,1-dioxide [Compound 148] |  |  | > 7.00 | > 7.30 |  |  | ≥ 6.00 | > 6.30 | ≥ 6.00 | > 6.30 |
| CCN1CCN(c2cc3c(N[C@H](C)c4cccc(C(F)(F)F)c4C)ncnc3nc2OC)CC1 [Compound 198, (R)-6-(4-ethylpiperazin-1-yl)-7-methoxy-N-(1-(2-methyl-3-(trifluoromethyl)phenyl)ethyl)pyrido[2,3-d]pyrimidin-4-amine] | ≥ 6.00 | > 6.30 | > 7.00 | > 7.30 | ≥ 6.00 | > 6.30 |  |  |  |  |
| COc1nc2nc(C)nc(N[C@H](C)c3cccc(C(C)(F)F)c3F)c2cc1N1CCS(=O)(=O)CC1 [Compound 215, (R)-4-(4-((1-(3-(1,1-difluoroethyl)-2-fluorophenyl)ethyl)amino)-7-methoxy-2-methylpyrido[2,3-d]pyrimidin-6-yl)thiomorpholine 1,1-dioxide] | ≥ 6.00 | > 6.30 | > 7.00 | > 7.30 | ≥ 6.00 | > 6.30 |  |  |  |  |

Continued, in another order:

| pIC50 [1, 3] | pIC50 [1, 4] | pIC50 (SOS1; [5]) | pIC50 (SOS1; [6]) | pIC50 [2, 7] | pIC50 [2, 8] | Molecule | pIC50 ([1]; MIA PaCa-2, 3D proliferation, about 5 days, read-out: Bio-Cell-Prolif-3D (MiaPaca2 IC50)) | pIC50 ([1]; MIA PaCa-2, read-out: IC50 in inhibiting MIA PaCa-2 cell growth) | pIC50 ([2]; NCI-H1975, 3D proliferation, about 5 days, read-out: Bio-Cell-Prolif-3D (H1975 IC50)) | pIC50 ([2]; NCI-H1975, EGFR T790M L858R, read-out: IC50 in inhibiting growth of NCI-H1975 cell line) |
| --- | --- | --- | --- | --- | --- | --- | --- | --- | --- | --- |
| ≥ 6.00 | > 6.30 | > 7.00 | > 7.30 | ≥ 6.00 | > 6.30 | Cc1nc(N[C@H](C)c2cccc(C(F)F)c2F)c2cc(N3CCN(C(C)C)CC3)c(OC3COC3)nc2n1 [Compound 336, (R)-N-(1-(3-(difluoromethyl)-2-fluorophenyl)ethyl)-6-(4-isopropylpiperazin-1-yl)-2-methyl-7-(oxetan-3-yloxy)pyrido [2,3-d]pyrimidin-4-amine] |  |  |  |  |
| ≥ 6.00 | > 6.30 | > 7.00 | > 7.30 | ≥ 6.00 | > 6.30 | Cc1nc(N[C@H](C)c2cccc(C(F)F)c2F)c2cc(N3CCN(C)CC3)c(OC3COC3)nc2n1 [Compound 411, (R)-N-(1-(3-(difluoromethyl)-2-fluorophenyl)ethyl)-2-methyl-6-(4-methylpiperazin-1-yl)-7-(oxetan-3-yloxy)pyrido[2,3-d]pyrimidin-4-amine] |  |  |  |  |
| 5.00 to 6.00 |  | > 7.00 | > 7.30 | 5.00 to 6.00 |  | CCN1CCN(c2cc3c(N[C@H](C)c4cccc(C(F)F)c4F)nc(C)nc3nc2OC2CN(C)C2)CC1 [Compound 254, (R)-N-(1-(3-(difluoromethyl)-2-fluorophenyl)ethyl)-6-(4-ethylpiperazin-1-yl)-2-methyl-7-((1-methylazetidin-3-yl)oxy)pyrido[2,3-d]pyrimidin-4-amine] |  |  |  |  |
| 5.00 to 6.00 |  |  | > 7.30 | ≥ 6.00 | > 6.30 | Cc1nc(N[C@H](C)c2cccc(C(F)F)c2F)c2cc(C3(C#N)CC3)c(O[C@H]3CCOC3)nc2n1 [Compound 297, 1-(4-(((R)-1-(3-(difluoromethyl)-2-fluorophenyl)ethyl)amino)-2-methyl-7-(((S)-tetrahydrofuran-3-yl)oxy)pyrido[2,3-d]pyrimidin-6-yl)cyclopropane-1-carbonitrile] |  |  |  |  |
| ≥ 6.00 |  | > 7.00 | > 7.30 | 5.00 to 6.00 |  | C[C@@H](Nc1ncnc2nc(OC3COC3)c(N3CCS(=O)(=O)CC3)cc12)c1cccc(C(F)F)c1F [Compound 231, (R)-4-(4-((1-(3-(difluoromethyl)-2-fluorophenyl)ethyl)amino)-7-(oxetan-3-yloxy)pyrido[2,3-d]pyrimidin-6-yl)thiomorpholine 1,1-dioxide] |  |  |  |  |
